Laboratory results from patent publication US9926275B2 (priority 2013, dated 2018).

How the values were obtained:
CB1 receptor [1] = biological target: T1, CB1 receptor (Homo sapiens, UniProt P21554); assay: DiscoveRx HitHunter cAMP XS+ assay in cAMP Hunter cell line, allosteric modulation of CP55,940 response; format: cell-based; conditions: Table 1, preincubation with compound, then CP55,940 challenge, 20 μM forskolin; for EC50: read-out: cAMP EC50
Protocol: Once it was established that the cells were healthy and growing normally, cells were passaged from flasks using cell dissociation reagent buffer and seeded into white walled clear bottom 384-well microplates for compound profiling. For profiling, cells were seeded at a density of 10000 cells per well in a total volume of 20 μL and were allowed to adhere and recover overnight prior to compound addition. Cells were treated the following day using the protocols shown below. cAMP modulation was determined using the DiscoveRx HitHunter cAMP XS+ assay.
Media was aspirated from cells and replaced with 10 μL 1:1 HBSS/Hepes: cAMP XS+ Ab reagent. Agonist (CP55,940) dose curves were performed to determine the EC20 value for the testing with the compounds of the present technology. 5 μL of 4× agonist was added to each well with an equal concentration of vehicle present. EC20 agonist concentration was determined directly from agonist dose curve.
(§1) For allosteric determination, cells were preincubated with compound followed by agonist challenge at the EC20 concentration of the agonist. 5 μL of 4× compound was added to cells and incubated at 37° C. for 30 minutes. 5 μL of 4× EC20 agonist was added to cells and incubated at 37° C. for 30 minutes.
Signal Detection: After appropriate compound incubation, assay signal was generated through incubation with 20 μL cAMP XS+ED/CL lysis cocktail for one hour followed by incubation with 20 μL cAMP XS+EA reagent for three hours at room temperature. Microplates were read following signal generation with a PerkinElmer Envision™ instrument for chemiluminescent signal detection.
(§2) Data Analysis: Dose curves were plotted using GraphPad Prism or Activity Base. The percentage activity is calculated using the following formula: % Activity=100%×(1−(mean RLU of test sample−mean RLU of MAX control)/(mean RLU of vehicle control [EC20 for PAM]−mean RLU of MAXcontrol).
(§3) Agonist (CP55,940) dose curves were performed for the CNR1 PathHunter and cAMP Hunter cell lines. […] The cAMP assay was performed in the presence of 20 μM forskolin (EC80).
(§4) In Vitro Evaluation: The in vitro evaluation of the covalent allosteric modulators was performed using as described previously.

CB1 receptor [2] = biological target: T1, CB1 receptor; assay: β-arrestin recruitment in CNR1 PathHunter cell line, allosteric modulation of CP55,940 response; format: cell-based; conditions: Table 1, CP55,940 as agonist; for EC50: read-out: β-arrestin EC50
Protocol: as §1, §2, §3, §4

T1 sequence (P21554 whole entry): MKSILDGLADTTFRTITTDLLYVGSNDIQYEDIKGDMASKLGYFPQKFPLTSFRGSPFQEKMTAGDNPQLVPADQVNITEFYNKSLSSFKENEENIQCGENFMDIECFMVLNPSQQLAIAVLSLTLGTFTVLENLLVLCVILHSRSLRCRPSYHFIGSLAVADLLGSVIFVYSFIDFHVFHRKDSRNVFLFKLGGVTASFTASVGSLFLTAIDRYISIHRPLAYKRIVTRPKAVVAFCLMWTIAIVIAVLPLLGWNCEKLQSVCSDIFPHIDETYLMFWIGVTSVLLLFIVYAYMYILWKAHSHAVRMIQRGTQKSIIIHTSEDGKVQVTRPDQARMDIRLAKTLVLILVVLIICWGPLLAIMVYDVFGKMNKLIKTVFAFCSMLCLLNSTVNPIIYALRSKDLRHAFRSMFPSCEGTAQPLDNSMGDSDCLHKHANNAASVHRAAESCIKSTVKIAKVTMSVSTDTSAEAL

Structure (SMILES)	cAMP % inhibition (CB1 receptor [1]) [%]	EC50 (CB1 receptor [1]) [nM]	β-arrestin % inhibition (CB1 receptor [2]) [%]	EC50 (CB1 receptor [2]) [nM]
O=C(Nc1cccc(-c2cccc(N3CCCC3)n2)c1)Oc1ccc(Cl)cc1 [Compound 13b, 4-Chlorophenyl (3-(6-(pyrrolidin-1-yl)pyridin-2-yl)phenyl)carbamate]	3.5	> 10000	24	5370
Cc1cc(Cl)ccc1OC(=O)Nc1cccc(-c2cccc(N3CCCC3)n2)c1 [Compound 13c, 4-Chloro-2-methylphenyl (3-(6-(pyrrolidin-1-yl)pyridin-2-yl)phenyl)carbamate]	24	3050	39	3070
COC(=O)c1ccccc1NC(=O)Nc1cccc(-c2cccc(N3CCCC3)n2)c1 [Compound 15, Methyl 2-(3-(3-(6-(pyrrolidin-1-yl)pyridin-2-yl)phenyl)ureido)benzoate]	0.6	> 10000	24	8520
O=C(Nc1cccc(-c2cccc(N3CCCC3)n2)c1)Nc1ccccc1C(=O)O [Compound 16, 2-(3-(3-(6-(Pyrrolidin-1-yl)pyridin-2-yl)phenyl)ureido)benzoic acid]	35	> 10000	1.5	> 10000
O=C(Nc1cccc(-c2cccc(N3CCCC3)n2)c1)Nc1ccccc1CO [Compound 17, 1-(2-(Hydroxymethyl)phenyl)-3-(3-(6-(pyrrolidin-1-yl)pyridin-2-yl)phenyl)urea]	33	1140	106	672
O=C(Nc1cccc(-c2cccc(N3CCCC3)n2)c1)Nc1ccc(Cl)cc1I [Compound 19a, 1-(4-Chloro-2-iodophenyl)-3-(3-(6-(pyrrolidin-1-yl)pyridin-2-yl)phenyl)urea]	53	1270	118	1200
O=C(Nc1cccc(-c2cccc(N3CCCC3)n2)c1)Nc1ccc(Cl)c(I)c1 [Compound 19b, 1-(4-Chloro-3-iodophenyl)-3-(3-(6-(pyrrolidin-1-yl)pyridin-2-yl)phenyl)urea]	30	> 10000	120	126
O=C(Nc1cccc(-c2cccc(N3CCCC3)n2)c1)Nc1ccc(Cl)cc1C#CCCOC1CCCCO1 (stereo not drawn) [Compound 21a, 1-(4-Chloro-2-(4-((tetrahydro-2H-pyran-2-yl)oxy)but-1-yn-1-yl)phenyl)-3-(3-(6-(pyrrolidin-1-yl)pyridin-2-yl)phenyl)urea]	9	> 10000	73	3400
O=C(Nc1cccc(-c2cccc(N3CCCC3)n2)c1)Nc1ccc(Cl)c(C#CCCOC2CCCCO2)c1 (stereo not drawn) [Compound 21b, 1-(4-Chloro-3-(4-((tetrahydro-2H-pyran-2-yl)oxy)but-1-yn-1-yl)phenyl)-3-(3-(6-(pyrrolidin-1-yl)pyridin-2-yl)phenyl)urea]	22	> 10000	111	208
O=C(Nc1cccc(-c2cccc(N3CCCC3)n2)c1)Nc1ccc(Cl)cc1C#CCCO [Compound 22a, 1-(4-Chloro-2-(4-hydroxybut-1-yn-1-yl)phenyl)-3-(3-(6-(pyrrolidin-1-yl)pyridin-2-yl)phenyl)urea]	49	6490	83	4890
O=C(Nc1cccc(-c2cccc(N3CCCC3)n2)c1)Nc1ccc(Cl)c(C#CCCO)c1 [Compound 22b, 1-(4-Chloro-3-(4-hydroxybut-1-yn-1-yl)phenyl)-3-(3-(6-(pyrrolidin-1-yl)pyridin-2-yl)phenyl)urea]	152	551	123	149
O=C(Nc1cccc(-c2cccc(N3CCCC3)n2)c1)Nc1ccc(Cl)cc1CCCCOC1CCCCO1 (stereo not drawn) [Compound 23a, 1-(4-Chloro-2-(4-((tetrahydro-2H-pyran-2-yl)oxy)butyl)phenyl)-3-(3-(6-(pyrrolidin-1-yl)pyridin-2-yl)phenyl)urea]	41	820	117	1090
O=C(Nc1cccc(-c2cccc(N3CCCC3)n2)c1)Nc1ccc(Cl)c(CCCCOC2CCCCO2)c1 (stereo not drawn) [Compound 23b, 1-(4-Chloro-3-(4-((tetrahydro-2H-pyran-2-yl)oxy)butyl)phenyl)-3-(3-(6-(pyrrolidin-1-yl)pyridin-2-yl)phenyl)urea]	55	354	121	771
O=C(Nc1cccc(-c2cccc(N3CCCC3)n2)c1)Nc1ccccc1CCCCOC1CCCCO1 (stereo not drawn) [Compound 23c, 1-(3-(6-(Pyrrolidin-1-yl)pyridin-2-yl)phenyl)-3-(2-(4-((tetrahydro-2H-pyran-2-yl)oxy)butyl)phenyl)urea]	20	> 10000	69	6190
O=C(Nc1cccc(-c2cccc(N3CCCC3)n2)c1)Nc1ccc(Cl)cc1CCCCO [Compound 24a, 1-(4-Chloro-2-(4-hydroxybutyl)phenyl)-3-(3-(6-(pyrrolidin-1-yl)pyridin-2-yl)phenyl)urea]	82	1230	126	276
O=C(Nc1cccc(-c2cccc(N3CCCC3)n2)c1)Nc1ccc(Cl)c(CCCCO)c1 [Compound 24b, 1-(4-Chloro-3-(4-hydroxybutyl)phenyl)-3-(3-(6-(pyrrolidin-1-yl)pyridin-2-yl)phenyl)urea]	111	1420	125	1350
CN(C(=O)Nc1ccc(Cl)cc1)c1cccc(-c2cccc(N3CCCC3)n2)c1 [Compound 27, 3-(4-Chlorophenyl)-1-methyl-1-(3-(6-(pyrrolidin-1-yl)pyridin-2-yl)phenyl)urea]	31	527	109	384
CN(C(=O)N(C)c1cccc(-c2cccc(N3CCCC3)n2)c1)c1ccc(Cl)cc1 [Compound 28, 1-(4-Chlorophenyl)-1,3-dimethyl-3-(3-(6-(pyrrolidin-1-yl)pyridin-2-yl)phenyl)urea]	39	1670	62	2330
O=C(Nc1ccc(Cl)cc1)Oc1cccc(-c2cccc(N3CCCC3)n2)c1 [Compound 31, 3-(6-(Pyrrolidin-1-yl)pyridin-2-yl)phenyl (4-chlorophenyl)carbamate]	8.8	> 10000	58	8660
S=C(Nc1ccc(Cl)cc1)Nc1cccc(-c2cccc(N3CCCC3)n2)c1 [Compound 32, 1-(4-Chlorophenyl)-3-(3-(6-(pyrrolidin-1-yl)pyridin-2-yl)phenyl)thiourea]	77	830	110	276
N#C/N=C(/Nc1ccc(Cl)cc1)Nc1cccc(-c2cccc(N3CCCC3)n2)c1 [Compound 35, (Z)-1-(4-Chlorophenyl)-2-cyano-3-(3-(6-(pyrrolidin-1-yl)pyridin-2-yl)phenyl)guanidine]	29	3340	69	3060
Clc1ccc(Nc2nnc(-c3cccc(-c4cccc(N5CCCC5)n4)c3)o2)cc1 [Compound 42, N-(4-Chlorophenyl)-5-(3-(6-(pyrrolidin-1-yl)pyridin-2-yl)phenyl)-1,3,4-oxadiazol-2-amine]	43	> 10000	31	5850
Clc1ccc(-c2nnc(Nc3cccc(-c4cccc(N5CCCC5)n4)c3)o2)cc1 [Compound 45, 5-(4-Chlorophenyl)-N-(3-(6-(pyrrolidin-1-yl)pyridin-2-yl)phenyl)-1,3,4-oxadiazol-2-amine]	20	4050	70	3210
O=C(Nc1ccc(Cl)cc1)Nc1ccc(-c2cccc(N3CCCC3)n2)cc1 [Compound 51, 1-(4-Chlorophenyl)-3-(4-(6-(pyrrolidin-1-yl)pyridin-2-yl)phenyl)urea]	11	> 10000	109	206
